Where two headings read alike, the source gives them in different places.
How the values were obtained:
[1] = biological target: T1, D2 receptor (Rattus norvegicus, UniProt P61169); assay: Functional D2 receptor [35S]GTPγS assay (antagonist mode vs dopamine; basal for agonism); format: biochemical; conditions: against 40 µM dopamine, rat striatal homogenate;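 also: [35S]GTPγS binding counted by scintillation after 60 min at 30 °C, nonspecific binding defined with 100 µM unlabeled GTPγS, inhibition curves fitted by one-site nonlinear regression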
T1 construct: 15μg/mL of striatal homogenate was incubated in triplicate; from tissue; host or cells: rat striatum homogenate

[2] = biological target: 5-HT2A receptor (Rattus norvegicus, UniProt P14842); assay: 5-HT2A competition binding assay ([3H]ketanserin, frontal cortex homogenates)
[3] = biological target: T2, 5-HT1A receptor (Rattus norvegicus, UniProt P19327); assay: Functional 5-HT1A receptor [35S]GTPγS assay (agonist mode); format: biochemical; conditions: for Emax: read-out: 5-HT1A Receptor G-Protein Stimulation Emax (%) ± SEM;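 as to all read-outs here: male Sprague-Dawley rat hippocampal membranes incubated 90 min at 37 °C, bound label counted by scintillation after filtration, non-specific binding defined with 100 µM unlabeled GTPγS, one-site curve fit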
T2 construct: 15 μg/mL of hippocampus homogenate was incubated in triplicate with 0.8 nM; from tissue; host or cells: rat hippocampus homogenate
T2 sequence (P19327 1-422): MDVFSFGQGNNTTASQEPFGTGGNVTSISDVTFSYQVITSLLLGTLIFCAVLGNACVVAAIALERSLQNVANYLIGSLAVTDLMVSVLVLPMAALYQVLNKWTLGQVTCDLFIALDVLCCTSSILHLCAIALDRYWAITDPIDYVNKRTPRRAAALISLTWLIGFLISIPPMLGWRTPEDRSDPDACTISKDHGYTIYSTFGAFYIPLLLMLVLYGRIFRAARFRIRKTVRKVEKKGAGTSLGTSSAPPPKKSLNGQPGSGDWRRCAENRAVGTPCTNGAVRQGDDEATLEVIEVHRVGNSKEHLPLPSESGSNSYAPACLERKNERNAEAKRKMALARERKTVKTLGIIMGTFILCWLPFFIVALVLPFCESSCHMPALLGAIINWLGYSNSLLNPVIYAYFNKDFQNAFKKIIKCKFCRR

[4] = biological target: T3, human 5-HT2C receptor (Homo sapiens, UniProt P28335); assay: 5-HT2C competition binding assay ([3H]mesulergine, transfected cell membranes)
T3 sequence (P28335 33-458): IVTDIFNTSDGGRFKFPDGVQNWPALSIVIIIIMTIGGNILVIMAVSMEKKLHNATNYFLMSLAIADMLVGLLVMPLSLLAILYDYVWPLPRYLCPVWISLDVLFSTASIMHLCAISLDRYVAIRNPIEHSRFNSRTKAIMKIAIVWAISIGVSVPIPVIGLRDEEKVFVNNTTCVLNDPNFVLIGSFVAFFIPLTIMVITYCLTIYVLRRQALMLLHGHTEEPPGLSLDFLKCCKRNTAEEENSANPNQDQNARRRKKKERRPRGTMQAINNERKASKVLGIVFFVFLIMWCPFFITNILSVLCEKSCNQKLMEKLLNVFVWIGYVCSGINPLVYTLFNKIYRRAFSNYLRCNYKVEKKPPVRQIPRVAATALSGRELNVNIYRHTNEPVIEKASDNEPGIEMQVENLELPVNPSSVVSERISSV

[5] = read-out: D2 receptor antagonistic activity IC50 (95% CI)
[6] = read-out: D2 receptor antagonistic activity pIC50 (M ± SEM) (converted)
[7] = [35S]GTPγS, rat hippocampus homogenate, read-out: 5-HT1A Receptor G-Protein Stimulation EC50 (95% CI)
[8] = [35S]GTPγS, rat hippocampus homogenate
[9] = [3H]mesulergine, human 5-HT2C membranes, read-out: 5-HT2C Ki (95% CI)
[10] = [3H]mesulergine, human 5-HT2C membranes, ± SEM, read-out: 5-HT2C pKi (converted)
[11] = [35S]GTPγS, rat hippocampus homogenate, ± SEM
[12] = ± SEM, read-out: 5-HT2A pKi (converted)

T1 sequence (P61169 whole entry): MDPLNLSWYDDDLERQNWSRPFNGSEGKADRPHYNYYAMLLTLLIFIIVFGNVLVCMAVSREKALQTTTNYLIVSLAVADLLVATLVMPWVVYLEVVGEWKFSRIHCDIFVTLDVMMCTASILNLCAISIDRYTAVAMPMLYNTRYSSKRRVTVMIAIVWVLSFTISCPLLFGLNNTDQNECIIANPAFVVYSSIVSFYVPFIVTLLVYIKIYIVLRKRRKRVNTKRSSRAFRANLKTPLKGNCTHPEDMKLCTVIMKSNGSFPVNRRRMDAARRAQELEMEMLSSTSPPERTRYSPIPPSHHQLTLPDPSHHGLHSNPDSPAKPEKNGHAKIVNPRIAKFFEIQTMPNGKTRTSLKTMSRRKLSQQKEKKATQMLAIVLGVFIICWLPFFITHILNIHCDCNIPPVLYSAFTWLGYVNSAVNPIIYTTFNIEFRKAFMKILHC
Sequence of 5-HT2A receptor (P14842 whole entry): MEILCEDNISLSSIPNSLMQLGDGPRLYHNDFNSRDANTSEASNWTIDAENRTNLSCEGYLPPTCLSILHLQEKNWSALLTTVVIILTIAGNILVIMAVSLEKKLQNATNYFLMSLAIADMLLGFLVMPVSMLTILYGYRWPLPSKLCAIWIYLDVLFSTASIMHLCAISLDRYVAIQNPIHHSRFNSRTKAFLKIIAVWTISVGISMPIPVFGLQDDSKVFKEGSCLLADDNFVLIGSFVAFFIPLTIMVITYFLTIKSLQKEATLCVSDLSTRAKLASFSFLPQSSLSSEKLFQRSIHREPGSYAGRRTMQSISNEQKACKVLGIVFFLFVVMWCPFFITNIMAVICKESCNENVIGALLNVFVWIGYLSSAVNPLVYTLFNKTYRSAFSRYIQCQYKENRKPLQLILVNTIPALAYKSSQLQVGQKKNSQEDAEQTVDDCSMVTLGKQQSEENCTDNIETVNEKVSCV

| Structure (SMILES) | IC50 [1, 5] [nM] | Ki ([2]; read-out: 5-HT2A Ki (95% CI)) [nM] | EC50 [3, 7] [nM] | Emax [3, 8] [%] | Ki [4, 9] [nM] | 5-HT1A Receptor G-Protein Stimulation Emax (%) ± SEM [3, 8] | further results |
| --- | --- | --- | --- | --- | --- | --- | --- |
| COc1ccccc1N1CCN(CCCNC(=O)C2CC3C=CC2C3)CC1 (single isomer, unassigned) [Norbo-6, endo-N-(3-(4-(2-methoxyphenyl)piperazin-1-yl)propyl)bicyclo[2.2.1]hept-5-ene-2-carboxamide] | 59500 | 88.7 | 3220 | 131 ± 5.5 | 1030 | – | IC50 [1, 6]: 60300 nM |
| CCCN(CCC)C1CCc2cccc(O)c2C1 (centres unmarked) [Norbo 8-OH-DPAT, reference compound] | – | – | – | – | – | – | Emax [3]: 154 ± 2.3% |
| O=C(NCCCN1CCN(c2ccccc2)CC1)C1CC2C=CC1C2 (stereo not drawn) [Norbo-1, Exo-N-(3-(4-phenylpiperazin-1-yl)propyl)bicyclo[2.2.1]hept-5-ene-2-carboxamide] | 101000 | 74 | 1200 | 174 ± 4.15 | 3890 | – | – |
| O=C(NCCCN1CCN(c2ccccc2)CC1)C1CC2C=CC1C2 (stereo not drawn) [Norbo-2, endo-N-(3-(4-phenylpiperazin-1-yl)propyl)bicyclo[2.2.1]hept-5-ene-2-carboxamide] | 106000 | 99.1 | 1630 | – | 1610 | 188 ± 4.9 % | EC50 ([3]; [35S]GTPγS, rat hippocampus homogenate, ± SEM, read-out: 5-HT1A Receptor G-Protein Stimulation pEC50 (converted)): 1660 nM |
| Cc1cccc(N2CCN(CCCNC(=O)C3CC4C=CC3C4)CC2)c1C (stereo not drawn) [Norbo-3, Exo-N-(3-(4-(2,3-dimethylphenyl)piperazin-1-yl)propyl)bicyclo[2.2.1]hept-5-ene-2-carboxamide] | 71000 | 23.5 | 177 | 185 ± 3.2 | 250 | – | – |
| COc1ccc(N2CCN(CCCNC(=O)C3CC4C=CC3C4)CC2)cc1 (stereo not drawn) [Norbo-7, Exo-N-(3-(4-(4-methoxyphenyl)piperazin-1-yl)propyl)bicyclo[2.2.1]hept-5-ene-2-carboxamide] | 51500 | 105 | 348 | 169 ± 3.5 | 51.3 | – | – |
| COc1ccc(N2CCN(CCCNC(=O)C3CC4C=CC3C4)CC2)cc1 (stereo not drawn) [Norbo-8, endo-N-(3-(4-(4-methoxyphenyl)piperazin-1-yl)propyl) bicyclo[2.2.1]hept-5-ene-2-carboxamide] | 60400 | 127 | 165 | – | 398 | 167 ± 2.3 % | – |
| O=C(NCCCN1CCN(c2ccccc2Cl)CC1)C1CC2C=CC1C2 (stereo not drawn) [Norbo-9, Exo-N-(3-(4-(2-chlorophenyl)piperazin-1-yl)propyl) bicyclo[2.2.1]hept-5-ene-2-carboxamide] | 20100 | 109 | 207 | 149 ± 3.1 | 2790 | – | IC50 [1, 6]: 20400 nM |
| O=C(NCCCN1CCN(c2ccccc2Cl)CC1)C1CC2C=CC1C2 (stereo not drawn) [Norbo-10, endo-N-(3-(4-(2-chlorophenyl)piperazin-1-yl)propyl)bicyclo[2.2.1]hept-5-ene-2-carboxamide] | 21500 | 254 | 198 | – | < 40 | 163 ± 2.4 % | Ki [4, 10]: 13.5 nM |
| O=C(NCCCN1CCN(c2ccc(Cl)cc2)CC1)C1CC2C=CC1C2 (stereo not drawn) [Norbo-11, Exo-N-(3-(4-(4-chlorophenyl)piperazin-1-yl)propyl)bicyclo[2.2.1]hept-5-ene-2-carboxamide] | 31200 | 149 | – | – | < 40 | no activity | IC50 [1, 6]: 31600 nM; 5-HT1A Receptor G-Protein Stimulation EC50 (95% CI, nM) [3, 8]: no activity; 5-HT1A Receptor G-Protein Stimulation pEC50 [3, 11]: no activity; Ki [4, 10]: 30.9 nM |
| O=C(NCCCN1CCN(c2ccc(Cl)cc2)CC1)C1CC2C=CC1C2 (stereo not drawn) [Norbo-12, endo-N-(3-(4-(4-chlorophenyl)piperazin-1-yl)propyl)bicyclo[2.2.1]hept-5-ene-2-carboxamide] | 100000 | 227 | 1870 | 127 ± 5.1 | 34900 | – | IC50 [1, 6]: 102000 nM |
| O=C(NCCCN1CCN(c2ccc(Cl)c(Cl)c2)CC1)C1CC2C=CC1C2 (stereo not drawn) [Norbo-13, Exo-N-(3-(4-(3,4-dichlorophenyl)piperazin-1-yl)propyl)bicyclo[2.2.1]hept-5-ene-2-carboxamide] | 68900 | 28.8 | – | – | 122 | no activity | 5-HT1A Receptor G-Protein Stimulation EC50 (95% CI, nM) [3, 8]: no activity; 5-HT1A Receptor G-Protein Stimulation pEC50 [3, 11]: no activity |
| O=C(NCCCN1CCN(c2ccccc2F)CC1)C1CC2C=CC1C2 (stereo not drawn) [Norbo-15, Exo-N-(3-(4-(2-fluorophenyl)piperazin-1-yl)propyl)bicyclo[2.2.1]hept-5-ene-2-carboxamide] | 62700 | 82.6 | 926 | – | 31 | 161 ± 4.5% | Ki [4, 10]: 31.6 nM |
| O=C(NCCCN1CCN(c2ccccn2)CC1)C1CC2C=CC1C2 (stereo not drawn) [Norbo-21, Exo-N-(3-(4-(pyridin-2-yl)piperazin-1-yl)propyl)bicyclo[2.2.1]hept-5-ene-2-carboxamide] | 181000 | 258 | 588 | 181 ± 2.5 | 1340 | – | – |
| O=C(NCCCN1CCN(c2ccccn2)CC1)C1CC2C=CC1C2 (stereo not drawn) [Norbo-22, endo-N-(3-(4-(pyridin-2-yl)piperazin-1-yl)propyl)bicyclo[2.2.1]hept-5-ene-2-carboxamide] | 125000 | – | 782 | – | 873 | 186 ± 4.4 % | Ki [2, 12]: 355 nM |
| O=C(NCCCN1CCN(c2ncccn2)CC1)C1CC2C=CC1C2 (stereo not drawn) [Norbo-23, Exo-N-(3-(4-(pyrimidin-2-yl)piperazin-1-yl)propyl)bicyclo[2.2.1]hept-5-ene-2-carboxamide] | 255000 | 1080 | 2400 | 181 ± 4.1 | 353 | – | – |
| O=C(NCCCN1CCN(c2ncccn2)CC1)C1CC2C=CC1C2 (stereo not drawn) [Norbo-24, endo-N-(3-(4-(pyrimidin-2-yl)piperazin-1-yl)propyl)bicyclo[2.2.1]hept-5-ene-2-carboxamide] | 206000 | – | 1720 | – | 211 | 177 ± 6.1 % | Ki [2, 12]: 1380 nM; Ki [4, 10]: 214 nM |
| O=C(NCCCN1CCN(Cc2ccc3c(c2)OCO3)CC1)C1CC2C=CC1C2 (stereo not drawn) [Norbo-25, Exo-N-(3-(4-(benzo[d][1,3]dioxol-5-ylmethyl)piperazin-1-yl)propyl)bicyclo[2.2.1]hept-5-ene-2-carboxamide] | – | – | 1910 | 184 ± 6.4 | 1050 | – | D2 receptor antagonistic activity IC50 (95% CI, µM) [1]: no activity; D2 receptor antagonistic activity pIC50 (M ± SEM) [1]: no activity; Ki [2, 12]: 372 nM |
| O=C(NCCCN1CCN(Cc2ccc3c(c2)OCO3)CC1)C1CC2C=CC1C2 (stereo not drawn) [Norbo-26, endo-N-(3-(4-(benzo[d][1,3]dioxol-5-ylmethyl)piperazin-1-yl)propyl)bicyclo[2.2.1]hept-5-ene-2-carboxamide] | – | 584 | 7500 | – | – | 178 ± 22.6 % | D2 receptor antagonistic activity IC50 (95% CI, µM) [1]: no activity; D2 receptor antagonistic activity pIC50 (M ± SEM) [1]: no activity; Ki [4, 10]: 2290 nM |
| O=C(NCCCN1CCN(C(=O)c2ccco2)CC1)C1CC2C=CC1C2 (stereo not drawn) [Norbo-27, Exo-N-(3-(4-(furan-2-carbonyl)piperazin-1-yl)propyl)bicyclo[2.2.1]hept-5-ene-2-carboxamide] | 66600 | 1130 | – | – | 1780 | no activity | 5-HT1A Receptor G-Protein Stimulation EC50 (95% CI, nM) [3, 8]: no activity; 5-HT1A Receptor G-Protein Stimulation pEC50 [3, 11]: no activity; agonist activity at the 5-HT1A receptor ([3]; [35S]GTPγS, result in words): no agonist activity |
| COc1cc(OC)c(C(=O)CCCCN2CCC3(CC2)NC(=O)NC3=O)cc1NS(=O)(=O)c1ccc(C(F)(F)F)cc1 [RS102221, reference compound] | – | – | – | – | – | – | 5-HT2C pKi [4]: 8.25 ± 0.21; Ki ([4]; read-out: 5-HT2C Ki (95% CI)): 5.56 nM |

From paper PMC9572521, “Synthesis, Docking Studies and Pharmacological Evaluation of Serotoninergic Ligands Containing a 5-Norbornene-2-Carboxamide Nucleus” (Molecules, 2022)
